One may read the inhibition as the change of the read-out against control, counted positive when it falls. By Inhibition is commonly meant the change of the read-out against control, counted positive when it falls.

Consider 20 compounds from ChEMBL document CHEMBL1151540, “1-Naphthylmethylphosphonic acid derivatives as osteoclastic acid phosphatase inhibitors” (Bioorg Med Chem Lett, 1995).

Assay [1] addresses Tartrate-resistant acid phosphatase type 5 (Homo sapiens) (UniProt P13686). Kind of assay: Tested for inhibition of human Osteoclastic acid phosphatase (OAP), purified from the spleen of a patient with hairy cell leukemia at 100 uM.
Assay [2] is filed under the species Mus musculus. Kind of assay: Compound was tested for thymidine incorporation at 10 uM concentration. The assay is classed as functional. (Incorporation of labelled thymidine or its analogues reports DNA synthesis.)
For assay [3], the species on record is Mus musculus. Kind of assay: Tested for percentage inhibition of PTH stimulated bone resorption in neonatal mouse calvaria placed in culture, at 10 uM concentration. The assay is classed as functional.
The species entered for assay [4] is Mus musculus. Briefly: Compound was evaluated for thymidine incorporation at 1 uM concentration using [H3 thymidine] as radioligand. Format: functional.
For assay [5], the species on record is Mus musculus. Kind of assay: Compound was evaluated for thymidine incorporation at 10 uM concentration using [H3 thymidine] as radioligand. Format: functional.
The species entered for assay [6] is Mus musculus. Kind of assay: Compound was evaluated for thymidine incorporation at 100 uM concentration using [H3 thymidine] as radioligand. The assay is classed as functional.
For assay [7], the species on record is Mus musculus. Briefly: Tested for percentage inhibition of PTH stimulated bone resorption in neonatal mouse calvaria placed in culture, at 1 uM concentration. The assay is classed as functional.
For assay [8], the species on record is Mus musculus. Briefly: Tested for percentage inhibition of PTH stimulated bone resorption in neonatal mouse calvaria placed in culture, at 100 uM concentration. The assay is classed as functional.
The species entered for assay [9] is Mus musculus. Kind of assay: Compound was tested for thymidine incorporation at 500 uM concentration using [H3 thymidine] as radioligand. Format: functional.
The species entered for assay [10] is Mus musculus. Briefly: Compound was tested for the percentage inhibition of PTH stimulated bone resorption in neonatal mouse calvaria placed in culture, at 100 uM concentration. Format: functional.
Assay [11] is filed under the species Mus musculus. Kind of assay: Compound was tested for the percentage inhibition of PTH stimulated bone resorption in neonatal mouse calvaria placed in culture, at 500 uM concentration. Format: functional.

Tartrate-resistant acid phosphatase type 5 (Homo sapiens), sequence (P13686 whole entry, looked up): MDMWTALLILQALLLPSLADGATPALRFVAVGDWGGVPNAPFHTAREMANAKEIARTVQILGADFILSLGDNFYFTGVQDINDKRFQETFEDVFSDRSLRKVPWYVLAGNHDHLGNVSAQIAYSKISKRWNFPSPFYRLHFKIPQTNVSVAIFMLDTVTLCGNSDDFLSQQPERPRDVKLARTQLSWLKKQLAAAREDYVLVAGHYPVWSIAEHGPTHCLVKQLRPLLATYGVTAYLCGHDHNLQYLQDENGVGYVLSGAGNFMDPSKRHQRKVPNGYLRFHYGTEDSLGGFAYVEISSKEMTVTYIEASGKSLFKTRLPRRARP

For `COc1ccc(CC(c2cccc3ccccc23)P(=O)(O)O)cc1` (centres undefined), the inhibition in [1] was determined as 73%. For `O=P(O)(O)C(Cc1ccccc1)c1ccccc1` (centres undefined), the inhibition in assay [1] is 15%. As to `O=P(O)(O)Cc1cccc2ccccc12`, the inhibition in [1] amounted to 64%. The same measure, in the same setting: in the case of `O=P(O)(O)C(Cc1ccc(-c2ccccc2)cc1)c1cccc2ccccc12` (centres undefined) it was 100%; in that of `O=P(O)(O)C(Cc1ccccc1)c1ccc2ccccc2c1` (centres undefined), 19%. On the same count and under the same terms, for `O=P(O)(O)C(Cc1ccc(Cl)cc1)(Cc1ccc(Cl)cc1)c1cccc2ccccc12` the value was 87%.

Turning to `O=P(O)(O)C(Cl)(Cl)P(=O)(O)O` [CLODRONIC ACID], the Control in assay [2] came out at 104%. The Inhibition in assay [3] is 95.6%.

Take `O=P(O)(O)C(Cc1ccccc1)c1cccc2ccccc12` (centres undefined): the inhibition in [1] was 92%. On the same count and under the same terms, for `O=P(O)(O)C(CC1CCCCC1)c1cccc2ccccc12` (centres undefined) the value was 73%. `O=[N+]([O-])c1ccc(CC(c2cccc3ccccc23)P(=O)(O)O)cc1` (centres undefined): the inhibition in assay [1] was determined as 80%. Take ORTHOVANADATE: the results for the Control in [4], in assay [5] and in assay [6] were 127%, 94% and 0.4%, respectively. Moreover, the inhibition in [7] came to 31.3%; in assay [3], 72.7%; in assay [8] it was 130%.

In [9], `O=P(O)(O)C(Cc1ccc(Cl)cc1)c1cccc2ccccc12` (centres undefined) displayed a Control of 76%. The Inhibition stood at 31.9% in assay [10] and 101.8% in [11]. Besides, in assay [1], the inhibition was determined as 94%. In the case of `Cc1ccc2ccccc2c1CP(=O)(O)O`, the inhibition in assay [1] is 20%.

For `Cc1ccc(CC(c2cccc3ccccc23)P(=O)(O)O)cc1` (centres undefined), the inhibition in [1] stood at 75%. The same measure, in the same setting: for `Cc1ccc2ccccc2c1C(CC1CCCCC1)P(=O)(O)O` (centres undefined) the value was 90%; for `O=P(O)(O)Cc1ccc2ccccc2c1`, 4%; for `O=C(c1ccc2ccccc2c1)C(c1cccc2ccccc12)P(=O)(O)O` (centres undefined), 95%. Consider `O=P(O)(O)Cc1ccccc1`, for which the inhibition in assay [1] came out at 0%. Regarding `O=C(c1ccccc1)C(C(=O)c1ccccc1)(c1cccc2ccccc12)P(=O)(O)O`, the inhibition in [1] is 96%.

As to `O=P(O)(O)C(O)c1cccc2ccccc12` (centres undefined), the inhibition in assay [1] stood at 10%.
